Columns and labels:
[1] = tested on: HCC1937 tumors; experiment: Orthotopic tumor model, HCC1937; assay type: in vivo, mouse; conditions: HCC1937 in mammary fat pads, NSG mice, daily oral 400 mg/kg, 28 days
Description: (§1) Orthotopic Tumor Model. Experiments in mice were conducted under a protocol approved by the IACUC of City of Hope. Because HCC1937 and HCC1937+BRCA1 cells form slow-growing tumors, they were implanted using MATRIGEL™ (Becton-Dickinson Biosciences). To establish tumors, 4×10^6 cells in 200 μL serum-free medium containing 50% MATRIGEL™ were injected into the mammary fat pads around the inguinal area of a pair of 8 week old female NSG mice. Once the initial tumors reached 13 mm in diameter, they were dissected out, minced into 3 mm pieces and implanted into the inguinal area of the mammary fat pads of the experimental mice. Tumors were measured over a 28-day period, and for each time point, the student t-test was used to determine the statistical significance between daily gavage with 400 mg/kg COH29 in 30% solutol and corresponding vehicle control. Thep value less than 0.05 (2 sides) was considered to indicate statistical significance

[2] = GLP toxicity study in rats; assay type: in vivo; conditions: for Toxicity: Sprague-Dawley rats, top dose 125 mg/kg
Description: (§2) Toxicity studies in rats and dogs at doses equivalent to 10× that dose have not shown toxicity at 10 or 21 days.

[3] = tested on: HCC1937+BRCA1 tumors; experiment: Orthotopic tumor model, HCC1937+BRCA1; assay type: in vivo, mouse; conditions: HCC1937+BRCA1 in mammary fat pads, NSG mice, daily oral 400 mg/kg, 28 days
Description: as §1

[4] = tested on: HCC1937+BRCA1; experiment: Microarray gene ontology enrichment, HCC1937+BRCA1; assay type: cell-based, human; conditions: genes downregulated, HCC1937 + BRCA1-COH29 vs HCC1937 + BRCA1
Description: FDR values were calculated using the method of Benjamini and Hochberg (28) from the distribution of ANOVA with Linear Contrastp-values. Gene ontology (GO) (29) enrichment analysis was performed within PARTEK® GENOMICS SUITE™, and GO categories were defined significant with a Fisher Exact test p-value<0.05.
To identify the mechanism through which COH29 preferentially lyses BRCA1-mutant human cancer cells, genome-wide microarray analysis was performed using the AFFYMETRIX® GENECHIP® microarray platform to identify the gene expression profiles and pathways affected by COH29 treatment. The RNA expression profile of COH29 treated HCC1937 breast cancer cells lacking BRCA1 was compared with that of COH29 treated HCC1937+BRCA1 cells. […] For example, DNA ligation involved in DNA repair is more strongly enriched in HCC1937 cells which may relate to the phenotypic effect.

[5] = tested on: tumor xenografts; experiment: Pilot tumor xenograft study; assay type: in vivo; conditions: daily oral administration, IL2-rg(KO)/NOD-Scid mice
Description: as §2

[6] = tested on: HCC1937+BRCA1; experiment: Cytotoxicity assay, HCC1937+BRCA1; assay type: cell-based, human; conditions: 10 μM, 72 h
Description: All cell lines were acquired from the American Type Culture Collection (Manassas, Va., USA). Cells were maintained in RPMI 1640 medium (Mediatech) with 10% fetal bovine serum, 2 mM glutamine, and 100 U of penicillin and 100 μg of streptomycin per ml of medium (Sigma) at 37° C. in 5% CO2. To isolate HCC1937+BRCA1 cells, parental HCC1937 cells were transfected with pcDNA3.1 plasmid expressing full-length BRCA1 cDNA. Stable transfectant clones were selected and used for drug sensitivity assays. For stable transfection, cells at 30-40% confluence were incubated overnight with […] of plasmid DNA, using FUGENE® 6 transfectin reagent (Roche Molecular Biochemical, Monza, Italy) according to the manufacturer's instructions. Cells were then selected in puromycin (1 μg/ml) (Invitrogen Life Technologies, La Jolla, Calif., USA). After 20 to 30 days, viable puromycin-resistant colonies from HCC1937 transfections were expanded and screened. The clones that stably expressed puromycin and retained growth potential were assayed for BRCA1 expression by Western blot analysis. The restoration of BRCA1 expression in the puromycin-resistant cDNA/transfectant cells was evaluated by Western blot analysis.
The MTT cytotoxicity assay was performed by incubating with MTT and monitoring the MTT formazan formed by viable cells with a microplate reader at a wavelength of 560 nm; the survival ratio was determined using the formula: (Atest−Ablank)/(Acontrol−Ablank)×100%. The cytotoxicity was determined in 96-well plates using the semiautomatic fluorescence-based Digital Imaging Microscopy System (DIMSCAN). DIMSCAN uses digital imaging microscopy to quantify viable cells, which selectively accumulate FDA (fluorescein diacetate; Alfa Aesar, Ward Hill, Mass.). DIMSCAN is capable of measuring cytotoxicity over a 4 log dynamic range by quantifying total fluorescence per well (which is proportional to the number of viable cells) after elimination of the background fluorescence by digital thresholding and eosin Y (Mallinckrodt Baker, Center Valley, Pa.) quenching. […]

Structure (SMILES): O=C(Nc1nc(-c2ccc(O)c(O)c2)c(-c2ccccc2)s1)c1ccc(O)c(O)c1 [COH29, N-(4-(3,4-dihydroxyphenyl)-5-phenylthiazol-2-yl)-3,4-dihydroxybenzamide]
- growth of tumors vs vehicle [1]: significantly (p=0.0007) suppressed
- Toxicity ([2]; 10 days): none
- Toxicity ([2]; 21 days): none
- NOAEL ([2]; Sprague-Dawley, rat, in vivo): 250 mg/kg/day
- tumor size vs vehicle controls [3]: not significantly smaller
- Genes (n): DNA ligation involved in DNA repair [4]: 3
- Genes (n): DNA repair [4]: 44
- Genes (n): DSB repair [4]: 14
- Genes (n): DSB repair via HR [4]: 9
- Genes (n): DSB repair via NHEJ [4]: 3
- lowest dose observed to inhibit growth of tumor xenografts [5]: 50 mg/kg
- cells survived ([6]; HCC1937+BRCA1 transfected with BRCA1 siRNA): 53%
- cells survived ([6]; HCC1937+BRCA1 transfected with control siRNA): 72%

From patent US20210267948A1, “TREATMENT OF CANCER” (CITY OF HOPE, priority 2017, published 2021)
